We go through 5 compounds from ChEMBL document CHEMBL1125667, “Receptor-based design of novel dihydrofolate reductase inhibitors: benzimidazole and indole derivatives” (J Med Chem, 1991).

In experiment [1] the target is T1, Dihydrofolate reductase (Rattus norvegicus) (UniProt Q920D2).
T1 sequence (whole entry): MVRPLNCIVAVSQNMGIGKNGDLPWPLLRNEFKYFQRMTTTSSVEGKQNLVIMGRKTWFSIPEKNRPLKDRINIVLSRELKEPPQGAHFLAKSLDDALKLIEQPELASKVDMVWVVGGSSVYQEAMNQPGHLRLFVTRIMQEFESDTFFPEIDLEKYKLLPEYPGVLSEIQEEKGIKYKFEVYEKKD
The experiment is described as follows: Inhibitory activity against Dihydrofolate reductase obtained from rat liver.

Experiment [2] addresses T2, Dihydrofolate reductase (Escherichia coli) (UniProt P0ABQ4).
T2 sequence (whole entry): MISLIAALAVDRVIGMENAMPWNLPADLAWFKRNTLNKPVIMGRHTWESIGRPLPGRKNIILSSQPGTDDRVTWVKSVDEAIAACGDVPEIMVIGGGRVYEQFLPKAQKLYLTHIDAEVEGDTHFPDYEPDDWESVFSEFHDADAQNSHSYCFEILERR
The experiment is described as follows: (§1) Inhibitory activity against Dihydrofolate reductase obtained from Escherichia coli.

For experiment [3], the target named is T3, Dihydrofolate reductase (Escherichia coli, UniProt P0ABQ4).
T3 sequence (P0ABQ4 whole entry): T2 sequence (whole entry)
The experiment is described as §1. The note with it: read-out: I50.

Structures are written as SMILES.

Regarding `Nc1nc2c(N)c3c(cc2[nH]1)C1(CC3)SCCS1`, in experiment [1], the I14 turned out to be 14 µM. For the same compound, the I31 in experiment [2] stood at 140 µM.
The compound `Nc1nc2c(N)cc(Cc3ccccc3)cc2[nH]1` gave an I5 in experiment [1] of 300 µM. Further, the I42 in experiment [2] was 300 µM.
On to `Nc1cc2c(N)cc(Cc3ccccc3)cc2[nH]1`, for which the IC50 in experiment [3] is 100 µM. In experiment [1], this compound came in with an I28 of 500 µM.
As for `Nc1nc2c(N)c3c(cc2[nH]1)CCC3`, the I7 in experiment [1] is 360 µM. The same compound showed an I13 in experiment [2] of 360 µM.
With `Nc1nc2c(N)cc(C(=O)c3ccccc3)cc2[nH]1`, in experiment [1], the I16 is 100 µM. The compound further had an I14 in experiment [2] of 100 µM.
